Drawing on ChEMBL document CHEMBL2380210, “Discovery of natural estrogen receptor modulators with structure-based virtual screening” (Bioorg Med Chem Lett, 2013), this text covers EC50, Activity and Ratio EC50 for 11 compounds.

Active and inactive are the calls of the source. The rule behind the calls is not given here.

The target of assay [1] is T1, Estrogen receptor beta (Homo sapiens, UniProt Q92731).
Description: Agonist activity at human estrogen receptor-beta by yeast two-hybrid assay in presence of SRC1
In assay [2] the target is T2, Estrogen receptor (Homo sapiens, UniProt P03372).
T2 sequence (P03372 whole entry): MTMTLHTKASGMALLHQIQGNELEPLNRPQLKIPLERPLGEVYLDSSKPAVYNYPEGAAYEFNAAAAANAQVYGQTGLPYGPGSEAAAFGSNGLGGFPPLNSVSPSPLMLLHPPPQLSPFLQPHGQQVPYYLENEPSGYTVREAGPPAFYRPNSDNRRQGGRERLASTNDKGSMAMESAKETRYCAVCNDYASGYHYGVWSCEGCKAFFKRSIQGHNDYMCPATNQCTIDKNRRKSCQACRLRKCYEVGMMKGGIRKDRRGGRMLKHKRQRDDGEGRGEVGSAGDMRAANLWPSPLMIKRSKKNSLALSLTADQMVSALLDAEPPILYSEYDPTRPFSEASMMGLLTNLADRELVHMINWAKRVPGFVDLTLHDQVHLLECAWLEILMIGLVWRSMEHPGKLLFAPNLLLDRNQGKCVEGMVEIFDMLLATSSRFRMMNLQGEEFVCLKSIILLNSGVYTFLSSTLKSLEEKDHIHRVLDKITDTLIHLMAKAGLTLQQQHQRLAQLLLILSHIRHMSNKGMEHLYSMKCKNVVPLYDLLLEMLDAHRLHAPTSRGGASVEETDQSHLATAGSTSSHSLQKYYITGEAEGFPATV
The assay is described as follows: Agonist activity at human estrogen receptor-alpha by yeast two-hybrid assay in presence of SRC1.

The target of assay [3] is T3, Estrogen receptor (Homo sapiens) (UniProt P03372).
T3 sequence (whole entry): T2 sequence (P03372 whole entry)
The assay is described as follows: Antagonist activity at human estrogen receptor-alpha at 25 uM by yeast two-hybrid assay in presence of SRC1.

In assay [4] the target is T1, Estrogen receptor beta. The source holds these as a separate data set.
Description: Antagonist activity at human estrogen receptor-beta by yeast two-hybrid assay in presence of SRC1
Assay [5] addresses T2, Estrogen receptor. Briefly: Antagonist activity at human estrogen receptor-alpha by yeast two-hybrid assay in presence of SRC1.
For another assay, the species on record is Homo sapiens. Briefly: Selectivity ratio of EC50 for human estrogen receptor-alpha to EC50 for human estrogen receptor-beta.

T1 sequence (Q92731 whole entry): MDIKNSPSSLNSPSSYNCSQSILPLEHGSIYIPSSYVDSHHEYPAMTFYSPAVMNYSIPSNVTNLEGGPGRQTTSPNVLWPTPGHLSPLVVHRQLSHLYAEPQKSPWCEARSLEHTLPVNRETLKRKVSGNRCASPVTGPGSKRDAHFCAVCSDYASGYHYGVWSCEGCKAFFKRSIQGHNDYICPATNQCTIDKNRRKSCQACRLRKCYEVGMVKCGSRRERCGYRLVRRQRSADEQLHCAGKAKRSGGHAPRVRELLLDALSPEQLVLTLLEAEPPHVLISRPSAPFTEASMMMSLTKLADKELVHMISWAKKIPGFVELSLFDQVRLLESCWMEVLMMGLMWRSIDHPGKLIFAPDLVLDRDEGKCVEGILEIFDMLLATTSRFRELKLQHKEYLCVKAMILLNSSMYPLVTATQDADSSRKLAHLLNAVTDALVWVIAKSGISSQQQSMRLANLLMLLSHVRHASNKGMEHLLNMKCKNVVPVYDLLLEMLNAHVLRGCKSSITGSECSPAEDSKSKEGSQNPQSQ

For `O=C(Cc1ccc(O)cc1)c1ccc(O)cc1O`, the concentration giving a half-maximal response (EC50) was 0.5 µM at Estrogen receptor beta [1] and 2.03 µM at Estrogen receptor [2].
For the compound `C=C(C)[C@@H]1[C@H](O)C[C@@H]2C(=CC[C@]3(C)[C@@H]([C@H](C)CC/C=C(\C)C(=O)OC)CC[C@@]23C)[C@@]1(C)CCC(=O)O`, the outcome in assay [3] was inactive. The compound also gave an EC50 at Estrogen receptor beta [4] of 72.4 µM.
On to `C/C(=C/C(=O)C[C@@H](C)[C@]1(C)CC[C@@]2(C)C3=CCC4C(C)(C)[C@H](O)CC[C@]4(C)[C@@H]3CC=C21)C(=O)O` (stereo partly drawn), for which the EC50 is 12.6 µM on Estrogen receptor [5] and 17.7 µM at Estrogen receptor beta [4].
Take `CCOC(=O)c1ccc(O)cc1` [ETHYLPARABEN]: the EC50 at Estrogen receptor beta [1] stood at 1.86 µM; on Estrogen receptor [2] it was 38.2 µM. Moreover, the Ratio EC50 in the assay filed under Homo sapiens was determined as 20.
With `C=C(C)[C@@H]1[C@H](O)C[C@@H]2C(=CC[C@]3(C)[C@@H]([C@H](C)CC/C=C(\C)C(=O)O)CC[C@@]23C)[C@@]1(C)CCC(=O)O`, the outcome in assay [3] was inactive. The compound also registered an EC50 at Estrogen receptor beta [4] of 25.3 µM.
In the case of `C=CCc1ccc(OC)c(-c2cc(C=O)cc(O)c2O)c1`, the half-maximal effective concentration (EC50) is 48.4 µM on Estrogen receptor [5] and 49.2 µM on Estrogen receptor beta [4].
For `CC(C)(O)c1ccc2c(c1)C(=O)C[C@H]1[C@@](C)(C(=O)O)CCC[C@]21C`, the results for the EC50 on Estrogen receptor [5] and on Estrogen receptor beta [4] were 8.17 µM and 4.28 µM, respectively.
Regarding `C=C(C)[C@@H]1[C@H](O)C[C@@H]2[C@]3(CC[C@]4(C)[C@@H]([C@H](C)CC/C=C(\C)C(=O)O)CC[C@@]24C)C[C@]13CCC(=O)O`, in assay [3], the outcome was inactive. In addition, the 50% effective concentration (EC50) on Estrogen receptor beta [4] worked out at 33.8 µM.
Consider `O=C(O)/C=C/c1ccc(O)cc1` [COUMARIC ACID], for which the figures for the 50% effective concentration (EC50) at Estrogen receptor beta [1] and at Estrogen receptor [2] were 4.89 µM and 16.1 µM, respectively.
Turning to `C=C(C)[C@@H]1[C@@H]2O[C@@H]2[C@@H]2[C@]3(CC[C@]4(C)[C@@H]([C@H](C)CC/C=C(\C)C(=O)O)CC[C@@]24C)C[C@]13CCC(=O)O`, the concentration giving a half-maximal response (EC50) stood at 2.55 µM on Estrogen receptor [5] and 4.68 µM at Estrogen receptor beta [4].
`C/C(=C/C(=O)C[C@@H](C)[C@]1(C)CC[C@@]2(C)C3=CCC4C(C)(C)C(=O)CC[C@]4(C)[C@@H]3CCC21)C(=O)O` (stereo partly drawn): the results for the concentration giving a half-maximal response (EC50) on Estrogen receptor [5] and on Estrogen receptor beta [4] were 8.32 µM and 2.76 µM, respectively.
